How the values were obtained:
human MER (528-end) = molecular target: T1, human MER (528-end) (Homo sapiens, UniProt Q12866); experiment: HTRF kinase activity biochemical assay, MER; settings: 10 μM ATP, 30 minutes pre-incubation; read-out: HTRF MERTK IC50
T1 construct: human MER (528-end); purchased Camnabio, Japan
T1 sequence (Q12866 528-999 limits assumed): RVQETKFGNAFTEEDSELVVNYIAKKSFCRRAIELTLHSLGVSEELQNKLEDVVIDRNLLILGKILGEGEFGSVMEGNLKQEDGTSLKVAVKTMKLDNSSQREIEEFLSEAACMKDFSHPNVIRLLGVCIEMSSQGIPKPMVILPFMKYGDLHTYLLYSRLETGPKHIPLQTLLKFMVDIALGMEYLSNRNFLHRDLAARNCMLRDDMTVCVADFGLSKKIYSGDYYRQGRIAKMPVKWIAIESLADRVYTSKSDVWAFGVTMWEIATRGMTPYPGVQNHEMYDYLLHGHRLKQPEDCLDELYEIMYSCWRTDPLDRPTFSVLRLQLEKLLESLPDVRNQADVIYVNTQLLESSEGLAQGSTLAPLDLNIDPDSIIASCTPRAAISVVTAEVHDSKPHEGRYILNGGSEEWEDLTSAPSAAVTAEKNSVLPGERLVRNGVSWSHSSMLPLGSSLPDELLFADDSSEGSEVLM

human AXL (473-end) = molecular target: T2, human AXL (473-end) (Homo sapiens, UniProt P30530); experiment: HTRF kinase activity biochemical assay, AXL; settings: 10 μM ATP, 30 minutes pre-incubation
T2 construct: human AXL (473-end); purchased SignalChem, Canada
T2 sequence (P30530 473-894 limits assumed): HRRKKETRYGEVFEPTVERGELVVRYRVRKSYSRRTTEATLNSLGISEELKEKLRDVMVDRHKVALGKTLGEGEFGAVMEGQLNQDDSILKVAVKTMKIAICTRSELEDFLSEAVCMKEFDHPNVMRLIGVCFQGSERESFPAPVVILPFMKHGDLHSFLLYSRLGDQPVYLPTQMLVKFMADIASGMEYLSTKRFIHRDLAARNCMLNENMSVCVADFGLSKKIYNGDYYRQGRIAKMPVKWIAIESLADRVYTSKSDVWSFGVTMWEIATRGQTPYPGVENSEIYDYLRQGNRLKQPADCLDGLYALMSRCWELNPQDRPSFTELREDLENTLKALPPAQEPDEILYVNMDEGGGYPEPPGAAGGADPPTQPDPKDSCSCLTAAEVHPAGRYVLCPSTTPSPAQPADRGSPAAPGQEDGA

human TYRO3 (455-end) = molecular target: T3, human TYRO3 (455-end) (Homo sapiens, UniProt Q06418); experiment: HTRF kinase activity biochemical assay, TYRO3; settings: 10 μM ATP, 30 minutes pre-incubation; read-out: HTRF TYRO IC50
T3 construct: TYRO3 (455-end); purchased SignalChem, Canada
T3 sequence (Q06418 455-890 limits assumed): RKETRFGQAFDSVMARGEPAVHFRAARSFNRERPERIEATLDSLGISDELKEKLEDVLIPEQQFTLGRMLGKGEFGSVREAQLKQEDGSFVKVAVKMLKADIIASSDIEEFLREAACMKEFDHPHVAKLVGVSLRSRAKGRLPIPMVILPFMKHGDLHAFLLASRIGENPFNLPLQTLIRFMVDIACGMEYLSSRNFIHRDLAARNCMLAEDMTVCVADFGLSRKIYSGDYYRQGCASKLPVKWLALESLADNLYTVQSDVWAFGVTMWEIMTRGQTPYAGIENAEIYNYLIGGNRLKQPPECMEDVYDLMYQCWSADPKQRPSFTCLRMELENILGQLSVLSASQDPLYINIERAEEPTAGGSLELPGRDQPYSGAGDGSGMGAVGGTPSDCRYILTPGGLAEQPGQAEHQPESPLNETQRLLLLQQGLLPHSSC

| Compound | IC50 (human MER (528-end)) [nM] | IC50 (human AXL (473-end)) [nM] | IC50 (human TYRO3 (455-end)) [nM] |
| --- | --- | --- | --- |
| Cc1cn(C)c2ccc(-c3ccc(CO[C@H]4CCC[C@@H]4NC(=O)c4cc(-c5cnn(C)c5)cnc4N)cc3)cc12 [Example 54, 2-amino-N-[(1S,2S)-2-{[4-(1,3-dimethyl-1H-indol-5-yl)phenyl]methoxy}cyclopentyl]-5-(1-methyl-1H-pyrazol-4-yl)pyridine-3-carboxamide] | 10 to 100 | 10 to 100 | > 1000 |
| Cc1[nH]c2ccc(-c3ccc(CO[C@H]4CCC[C@@H]4NC(=O)c4cc(-c5cnn(C)c5)cnc4N)cc3)cc2c1C [Example 55, 2-amino-N-[(1S,2S)-2-{[4-(2,3-dimethyl-1H-indol-5-yl)phenyl]methoxy}cyclopentyl]-5-(1-methyl-1H-pyrazol-4-yl)pyridine-3-carboxamide] | 10 to 100 | 10 to 100 | > 1000 |
| Cc1cc2cc(-c3ccc(CO[C@H]4CCC[C@@H]4NC(=O)c4cc(-c5cnn(C)c5)cnc4N)cc3)ccc2[nH]1 [Example 56, 2-amino-N-[(1S,2S)-2-{[4-(2-methyl-1H-indol-5-yl)phenyl]methoxy}cyclopentyl]-5-(1-methyl-1H-pyrazol-4-yl)pyridine-3-carboxamide] | 10 to 100 | 10 to 100 | > 1000 |
| Cn1cc(-c2cnc(N)c(C(=O)N[C@H]3CCC[C@@H]3OCc3ccc(-c4ccc5c(ccn5CCC(=O)O)c4)cc3)c2)cn1 [Example 58, 3-{5-[4-({[(1S,2S)-2-{[2-amino-5-(1-methyl-1H-pyrazol-4-yl)pyridine-3-carbonyl]amino}cyclopentyl]oxy}methyl)phenyl]-1H-indol-1-yl}propanoic acid] | 10 to 100 | 100 to 1000 | > 1000 |
| Cn1cc(-c2cnc(N)c(C(=O)N[C@H]3CCC[C@@H]3OCc3ccc(-c4ccc5c(ccn5CC(=O)O)c4)cc3)c2)cn1 [Example 61, {5-[4-({[(1S,2S)-2-{[2-amino-5-(1-methyl-1H-pyrazol-4-yl)pyridine-3-carbonyl]amino}cyclopentyl]oxy}methyl)phenyl]-1H-indol-1-yl}acetic acid] | 10 to 100 | 10 to 100 | > 1000 |
| Cn1cc(-c2cnc(N)c(C(=O)N[C@H]3CCC[C@@H]3OCc3ccc(-c4ccc5c(c4)CC(F)(F)[C@H]5N4CCN(CCO)CC4)cc3)c2)cn1 [Example 66, 2-amino-N-{(1S,2S)-2-[(4-{(1S)-2,2-difluoro-1-[4-(2-hydroxyethyl)piperazin-1-yl]-2,3-dihydro-1H-inden-5-yl}phenyl)methoxy]cyclopentyl}-5-(1-methyl-1H-pyrazol-4-yl)pyridine-3-carboxamide] | 10 to 100 | 10 to 100 | > 1000 |
| Cn1cc(-c2cnc(N)c(C(=O)N[C@H]3CCC[C@@H]3OCc3ccc(-c4ccc5c(c4)NC(=O)C5N4CCN(CCO)CC4)cc3)c2)cn1 (stereo partly drawn) [Example 69, 2-amino-N-{(1S,2S)-2-[(4-{3-[4-(2-hydroxyethyl)piperazin-1-yl]-2-oxo-2,3-dihydro-1H-indol-6-yl}phenyl)methoxy]cyclopentyl}-5-(1-methyl-1H-pyrazol-4-yl)pyridine-3-carboxamide] | 100 to 1000 | 100 to 1000 | > 1000 |
| CN(C)CCn1ccc2cc(-c3ccc(CO[C@H]4CCC[C@@H]4NC(=O)c4cc(-c5cnn(C)c5)cnc4N)cc3)ccc21 [Example 70, 2-amino-N-{(1S,2S)-2-[(4-{1-[2-(dimethylamino)ethyl]-1H-indol-5-yl}phenyl)methoxy]cyclopentyl}-5-(1-methyl-1H-pyrazol-4-yl)pyridine-3-carboxamide] | < 10 | < 10 | 100 to 1000 |

The remaining lines, values ahead:

| IC50 (human MER (528-end)) [nM] | IC50 (human AXL (473-end)) [nM] | IC50 (human TYRO3 (455-end)) [nM] | Compound |
| --- | --- | --- | --- |
| < 10 | 10 to 100 | > 1000 | Cn1cc(-c2cnc(N)c(C(=O)N[C@H]3CCC[C@@H]3OCc3ccc(-c4ccc5c(ccn5CCO)c4)cc3)c2)cn1 [Example 57, 2-amino-N-[(1S,2S)-2-({4-[1-(2-hydroxyethyl)-1H-indol-5-yl]phenyl}methoxy)cyclopentyl]-5-(1-methyl-1H-pyrazol-4-yl)pyridine-3-carboxamide] |
| < 10 | 10 to 100 | > 1000 | CC(C)n1ccc2cc(-c3ccc(CO[C@H]4CCC[C@@H]4NC(=O)c4cc(-c5cnn(C)c5)cnc4N)cc3)ccc21 [Example 60, 2-amino-5-(1-methyl-1H-pyrazol-4-yl)-N-[(1S,2S)-2-({4-[1-(propan-2-yl)-1H-indol-5-yl]phenyl}methoxy)cyclopentyl]pyridine-3-carboxamide] |
| < 10 | < 10 | > 1000 | Nc1ncc(-c2ccc(F)nc2)cc1C(=O)N[C@H]1CCC[C@@H]1OCc1ccc(-c2ccc3c(c2)CC(F)(F)C3N2CCN(CC(O)CO)CC2)cc1 (stereo partly drawn) [Example 62, 6-amino-N-{(1S,2S)-2-[(4-{1-[4-(2,3-dihydroxypropyl)piperazin-1-yl]-2,2-difluoro-2,3-dihydro-1H-inden-5-yl}phenyl)methoxy]cyclopentyl}-6′-fluoro[3,3′-bipyridine]-5-carboxamide] |
| < 10 | < 10 | 100 to 1000 | Cn1ccc(-c2cnc(N)c(C(=O)N[C@H]3CCC[C@@H]3OCc3ccc(-c4ccc5c(c4)CC(F)(F)C5N4CCN(CC(O)CO)CC4)cc3)c2)cc1=O (stereo partly drawn) [Example 63, 6-amino-N-{(1S,2S)-2-[(4-{1-[4-(2,3-dihydroxypropyl)piperazin-1-yl]-2,2-difluoro-2,3-dihydro-1H-inden-5-yl}phenyl)methoxy]cyclopentyl}-1′-methyl-2′-oxo-1′,2′-dihydro[3,4′-bipyridine]-5-carboxamide] |
| < 10 | 10 to 100 | > 1000 | Cn1cc(-c2cnc(N)c(C(=O)N[C@H]3CCC[C@@H]3OCc3ccc(-c4ccc5c(ccn5C(F)F)c4)cc3)c2)cn1 [Example 64, 2-amino-N-[(1S,2S)-2-({4-[1-(difluoromethyl)-1H-indol-5-yl]phenyl}methoxy)cyclopentyl]-5-(1-methyl-1H-pyrazol-4-yl)pyridine-3-carboxamide] |
| < 10 | < 10 | 100 to 1000 | Cn1cc(-c2cnc(N)c(C(=O)N[C@H]3CCC[C@@H]3OCc3ccc(-c4ccc5c(c4)CC(F)(F)[C@@H]5N4CCN(CCO)CC4)cc3)c2)cn1 [Example 65, 2-amino-N-{(1S,2S)-2-[(4-{(1R)-2,2-difluoro-1-[4-(2-hydroxyethyl)piperazin-1-yl]-2,3-dihydro-1H-inden-5-yl}phenyl)methoxy]cyclopentyl}-5-(1-methyl-1H-pyrazol-4-yl)pyridine-3-carboxamide] |
| < 10 | < 10 | 100 to 1000 | Cn1cc(-c2cnc(N)c(C(=O)N[C@H]3CCC[C@@H]3OCc3ccc(-c4ccc5c(ccn5CCN)c4)cc3)c2)cn1 [Example 67, 2-amino-N-[(1S,2S)-2-({4-[1-(2-aminoethyl)-1H-indol-5-yl]phenyl}methoxy)cyclopentyl]-5-(1-methyl-1H-pyrazol-4-yl)pyridine-3-carboxamide] |
| < 10 | < 10 | 100 to 1000 | Cn1cc(-c2cnc(N)c(C(=O)N[C@H]3CCC[C@@H]3OCc3ccc(-c4ccc5[nH]ccc5c4)cc3)c2)cn1 [Example 68, 2-amino-N-[(1S,2S)-2-{[4-(1H-indol-5-yl)phenyl]methoxy}cyclopentyl]-5-(1-methyl-1H-pyrazol-4-yl)pyridine-3-carboxamide] |

From patent publication US20260146035A1, “FUSED BICYCLIC COMPOUNDS AND THEIR USE AS MER AND AXL INHIBITORS” (DONG-A ST CO., LTD., priority 2022, published 2026)
